# Results taken from patent US7153495B2, “Fragrance friendly and cost effective antiperspirant actives and method of making the same” (Reheis, Inc., priority 2004, dated 2006).
# Columns and labels:
# [1] = Fragrance compatibility study (colour formation with fragrances, Macbeth Color Spectrophotometer and visual); format: physicochemical; settings: for ΔRG @ 45° C., Average / ΔYB @ 45° C., Average: average of 14 fragrances; for ΔRG @ 45° C., Average / ΔYB @ 45° C., Average / ΔRG @ 45° C. / ΔYB @ 45° C.: four weeks at 45° C.; for ΔRG @ 45° C. / ΔYB @ 45° C.: 0.75% perfume, 20% active
# Protocol: It is known that fragrances in antiperspirants can discolor over time due to the acidic nature and high transition metals concentration especially Fe, Cr, Co, Mn, Cu, and Ni. It is also known that glycine can initiate Schiff base reaction with aldehydes present in fragrances. […] Fragrance dispersions were prepared as follows: 0.75% perfume, 1.0% Arlasolve 200, 20% antiperspirant active (on an anhydrous basis), q.s. DI water. Samples were stored at 45° C. for four weeks and were analyzed for color visually as well as using Macbeth Color Spectrophotometer. Aluminum zirconium tetrachlorohydrex was compared against aluminum zirconium penta and octa salts of Examples 1 and 2. Color was measured as ΔYB (yellow blue) and ΔRG (red green) for all the fourteen fragrances and three actives.
# [2] = tested on: human volunteers; experiment: Controlled Hot Room Gravimetric Test of antiperspirant efficacy, suspension roll-on; format: in vivo; settings: for Sweat reduction: anhydrous suspension roll-on, about 20% salt on anhydrous basis, hot room
# Protocol: Aluminum zirconium octa salt of example 1 was tested for antiperspirant efficacy against most widely used aluminum zirconium tetrachlorohydrex in a suspension roll-on formulation using the standard hot room procedure. In the standard hot room procedure, human volunteers are subjected to thermal stress and gravimetric determination of the perspiration produced under the thermal stress with and without antiperspirant product applications are made. The data is subjected to analysis of covariance method described by Murphy and Levine (T. D. Murphy, et al., Analysis of Antiperspirant Efficacy Test Results, Journal of the Society of Cosmetic Chemists, Vol. 42, May 1991, pp. 167–197) and compared for percent sweat reduction capacity. Antiperspirancy tests were conducted by an outside independent lab employing “Controlled Hot Room Gravimetric Test” in conformance with FDA guidelines.
# The anhydrous suspension roll-ons were prepared using an aluminum zirconium salt concentration of about 20% on an anhydrous basis (about 25% on weight basis) and approximate concentration of other ingredients were Dow Coming 245, 70.5%, Bentone 38, 2.70%, SDA Alcohol 40 (95% alcohol+5% water) 1.8%.
# Aluminum zirconium tetrachlorohydrex powder used for comparison had the following chemical analysis. % Al 14.8, % Zr 14.5, % Cl 18.36, % Glycine 11.7, Al/Zr atomic ratio 3.52 and M/Cl atomic ratio of 1.36, % A.S. 77.46.
# Sweat reduction values for the octa and tetra salts were 48% and 52% respectively. Results of this study established that amino acid free cost effective aluminum zirconium salts could be prepared without sacrificing efficacy.
Substance,"ΔRG @ 45° C., Average [1]","ΔYB @ 45° C., Average [1]",ΔRG @ 45° C. ([1]; fragrance AC 10278/498988),ΔYB @ 45° C. ([1]; fragrance AC 10278/498988),ΔRG @ 45° C. ([1]; fragrance Bell J-8381),ΔYB @ 45° C. ([1]; fragrance Bell J-8381),ΔRG @ 45° C. ([1]; fragrance Drom99-920),ΔYB @ 45° C. ([1]; fragrance Drom99-920),ΔRG @ 45° C. ([1]; fragrance FFS 52847),ΔYB @ 45° C. ([1]; fragrance FFS 52847),ΔRG @ 45° C. ([1]; fragrance Firm. 430–507),ΔYB @ 45° C. ([1]; fragrance Firm. 430–507),ΔRG @ 45° C. ([1]; fragrance Noville AN 119738),ΔYB @ 45° C. ([1]; fragrance Noville AN 119738),ΔRG @ 45° C. ([1]; fragrance Q-26238),ΔYB @ 45° C. ([1]; fragrance Q-26238),ΔRG @ 45° C. ([1]; fragrance Q-26239),ΔYB @ 45° C. ([1]; fragrance Q-26239),ΔRG @ 45° C. ([1]; fragrance Q-26240),ΔYB @ 45° C. ([1]; fragrance Q-26240),other results
aluminum zirconium octachloro-hydrate [Example 1],6.84,8.2,1.86,3.77,2.88,5.56,2.28,4.45,6.37,6.76,12.82,14.63,11.91,12.23,7.45,8.49,6.65,9.40,4.07,5.04,"discoloration compared with tetrasalt ([1]; 14 fragrances, four weeks of shelf aging at 45° C., visual and instrumental): less discoloration; ΔRG @ 45° C. ([1]; fragrance Q-26241): 3.76; ΔYB @ 45° C. ([1]; fragrance Q-26241): 7.13; ΔRG @ 45° C. ([1]; fragrance Q-26242): 6.54; ΔYB @ 45° C. ([1]; fragrance Q-26242): 9.77; ΔRG @ 45° C. ([1]; fragrance Quest Q-14072): 10.05; ΔYB @ 45° C. ([1]; fragrance Quest Q-14072): 9.61; ΔRG @ 45° C. ([1]; fragrance SM 25105D): 8.65; ΔYB @ 45° C. ([1]; fragrance SM 25105D): 8.57; ΔRG @ 45° C. ([1]; fragrance Takasago RM 1595): 10.51; ΔYB @ 45° C. ([1]; fragrance Takasago RM 1595): 10.02; adverse experiences ([2]; 37 female subjects, suspension roll-on): No adverse experiences; difference in the reduction in perspiration versus aluminum zirconium tetrachlorohydrex ([2]; 37 female subjects, p=0.127): no statistically significant difference; Sweat reduction ([2]; 37 female subjects): 48%"
aluminum zirconium tetrachlorohydrex [reference compound],9.48,11.94,4.67,7.12,4.69,7.45,5.55,9.69,6.48,8.63,18.73,20.27,16.50,16.28,8.67,11.51,8.24,12.12,8.68,10.51,ΔRG @ 45° C. ([1]; fragrance Q-26241): 7.98; ΔYB @ 45° C. ([1]; fragrance Q-26241): 11.29; ΔRG @ 45° C. ([1]; fragrance Q-26242): 9.21; ΔYB @ 45° C. ([1]; fragrance Q-26242): 14.50; ΔRG @ 45° C. ([1]; fragrance Quest Q-14072): 14.66; ΔYB @ 45° C. ([1]; fragrance Quest Q-14072): 16.59; ΔRG @ 45° C. ([1]; fragrance SM 25105D): 9.49; ΔYB @ 45° C. ([1]; fragrance SM 25105D): 11.76; ΔRG @ 45° C. ([1]; fragrance Takasago RM 1595): 9.14; ΔYB @ 45° C. ([1]; fragrance Takasago RM 1595): 9.49; Sweat reduction ([2]; 37 female subjects): 52%; adverse experiences ([2]; in vivo): No adverse experiences
